Source: patent US10947213B1 (Merck Patent GmbH, priority 2015, dated 2021)

Biological target: T1, TLR7/NFKb HEK cells (Homo sapiens, UniProt Q9NYK1)
T1 construct: expressed in transfected cells; host or cells: HEK cells (TLR7/NFKb reporter line)
T1 sequence (Q9NYK1 27-1049): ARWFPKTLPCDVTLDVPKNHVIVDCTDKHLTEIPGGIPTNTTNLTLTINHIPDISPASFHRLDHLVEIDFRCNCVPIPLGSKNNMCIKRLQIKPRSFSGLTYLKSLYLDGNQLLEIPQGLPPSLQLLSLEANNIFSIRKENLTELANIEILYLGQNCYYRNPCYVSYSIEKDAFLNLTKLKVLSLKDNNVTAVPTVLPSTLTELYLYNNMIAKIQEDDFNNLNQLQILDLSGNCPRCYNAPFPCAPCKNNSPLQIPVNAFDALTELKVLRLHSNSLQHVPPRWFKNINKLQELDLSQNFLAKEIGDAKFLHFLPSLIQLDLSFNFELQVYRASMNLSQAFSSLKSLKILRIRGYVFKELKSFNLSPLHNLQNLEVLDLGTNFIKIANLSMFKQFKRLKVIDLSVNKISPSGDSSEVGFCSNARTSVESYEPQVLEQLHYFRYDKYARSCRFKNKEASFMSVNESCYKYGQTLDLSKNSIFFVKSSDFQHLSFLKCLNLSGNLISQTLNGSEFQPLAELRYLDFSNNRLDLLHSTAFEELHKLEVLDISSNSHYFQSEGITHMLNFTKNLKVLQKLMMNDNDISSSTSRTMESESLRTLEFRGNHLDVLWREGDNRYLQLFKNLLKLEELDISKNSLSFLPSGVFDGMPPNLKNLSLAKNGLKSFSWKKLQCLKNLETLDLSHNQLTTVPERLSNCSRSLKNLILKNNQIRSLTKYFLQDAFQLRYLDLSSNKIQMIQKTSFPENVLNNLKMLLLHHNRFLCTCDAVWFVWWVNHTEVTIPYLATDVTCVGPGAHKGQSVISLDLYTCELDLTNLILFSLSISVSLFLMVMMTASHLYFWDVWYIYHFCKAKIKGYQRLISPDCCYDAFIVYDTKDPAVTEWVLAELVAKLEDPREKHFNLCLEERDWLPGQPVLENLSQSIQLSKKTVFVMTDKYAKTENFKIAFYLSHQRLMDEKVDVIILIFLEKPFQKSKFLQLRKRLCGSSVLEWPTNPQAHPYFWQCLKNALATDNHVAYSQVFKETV
Experiment: HEK Cell Assay (TLR7/NFKb reporter, Steady-Glo luciferase readout)
Type: cell-based
Settings: 30 min compound preincubation, then R*48 agonist for 5 hours, read-out: Potency
How it was run: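 Steady-Glo luminescence after 5 h stimulation with R*48 agonist, following 30 min compound preincubation. Assay run in HEK cells carrying a TLR7/NFKb luciferase reporter, plated at 5000 cells/well and grown 24 h at 37° C (10% CO2) before treatment.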

First: CC(O)C(=O)N[C@@H]1C[C@H](C)CN(c2ccc(C(F)F)c3ncccc23)C1 (stereo partly drawn) [Compound 302, N-[(3R,5S)-1-[8-(difluoromethyl)quinolin-5-yl]-5-methylpiperidin-3-yl]-2-hydroxypropanamide]
Second: CC(C(=O)N[C@@H]1C[C@H](C)CN(c2ccc(C(F)F)c3ncccc23)C1)N1CC(O)C1 (stereo partly drawn) [Compound 309, N-[(3R,5S)-1-[8-(difluoromethyl)quinolin-5-yl]-5-methylpiperidin-3-yl]-2-(3-hydroxyazetidin-1-yl)propanamide]
The IC50 of the first is higher: 1000 to 10000 nM for the first, < 1000 nM for the second.

`C[C@H]1C[C@@H](NC(=O)CC2CCCN(C)C2)CN(c2ccc(C(F)F)c3ncccc23)C1` (stereo partly drawn) [Compound 303, N-[(3R,5S)-1-[8-(difluoromethyl)quinolin-5-yl]-5-methylpiperidin-3-yl]-2-(1-methylpiperidin-3-yl)acetamide] and `C[C@H]1C[C@@H](NC(=O)CC2CCN(C)C2)CN(c2ccc(C(F)F)c3ncccc23)C1` (stereo partly drawn) [Compound 307, N-[(3R,5S)-1-[8-(difluoromethyl)quinolin-5-yl]-5-methylpiperidin-3-yl]-2-(1-methylpyrrolidin-3-yl)acetamide] cannot be ordered by IC50: < 1000 nM for the first, < 1000 nM for the second.

Compared with `C[C@H]1C[C@@H](NC(=O)CN2CC(N)C2)CN(c2ccc(C(F)F)c3ncccc23)C1` [Compound 304, 2-(3-aminoazetidin-1-yl)-N-[(3R,5S)-1-[8-(difluoromethyl)quinolin-5-yl]-5-methylpiperidin-3-yl]acetamide], `C[C@H]1C[C@@H](NC(=O)CN2CC(O)C2)CN(c2ccc(C(F)F)c3ncccc23)C1` [Compound 308, N-[(3R,5S)-1-[8-(difluoromethyl)quinolin-5-yl]-5-methylpiperidin-3-yl]-2-(3-hydroxyazetidin-1-yl)acetamide] is higher in IC50: < 1000 nM for the first, 1000 to 10000 nM for the second. The first is the more potent here.

Compared with `CC(C(=O)N[C@@H]1C[C@H](C)CN(c2ccc(C(F)F)c3ncccc23)C1)N1CC(N)C1` (stereo partly drawn) [Compound 305, 2-(3-aminoazetidin-1-yl)-N-[(3R,5S)-1-[8-(difluoromethyl)quinolin-5-yl]-5-methylpiperidin-3-yl]propanamide], `CC(C(=O)N[C@@H]1C[C@H](C)CN(c2ccc(C(F)F)c3ncccc23)C1)N1CC(F)(F)C1` (stereo partly drawn) [Compound 311, 2-(3,3-difluoroazetidin-1-yl)-N-[(3R,5S)-1-[8-(difluoromethyl)quinolin-5-yl]-5-methylpiperidin-3-yl]propanamide] is higher in IC50: < 1000 nM for the first, 1000 to 10000 nM for the second. The first is the more potent here.

`C[C@H]1C[C@@H](NC(=O)C(N)C2CC2)CN(c2ccc(C(F)F)c3ncccc23)C1` (stereo partly drawn) [Compound 306, 2-amino-2-cyclopropyl-N-[(3R,5S)-1-[8-(difluoromethyl)quinolin-5-yl]-5-methylpiperidin-3-yl]acetamide] and `CC(C(=O)N[C@@H]1C[C@H](C)CN(c2ccc(C(F)F)c3ncccc23)C1)N1CCC(O)CC1` (stereo partly drawn) [Compound 313, N-[(3R,5S)-1-[8-(difluoromethyl)quinolin-5-yl]-5-methylpiperidin-3-yl]-2-(4-hydroxypiperidin-1-yl)propanamide] cannot be ordered by IC50: < 1000 nM for the first, < 1000 nM for the second.

Compared with `C[C@H]1C[C@@H](NC(=O)CC2CC2(F)F)CN(c2ccc(C(F)F)c3ncccc23)C1` (stereo partly drawn) [Compound 310, 2-(2,2-difluorocyclopropyl)-N-[(3R,5S)-1-[8-(difluoromethyl)quinolin-5-yl]-5-methylpiperidin-3-yl]acetamide], `C[C@H]1C[C@@H](NC(=O)C2CC(F)(F)C2)CN(c2ccc(C(F)F)c3ncccc23)C1` [Compound 317, N-[(3R,5S)-1-[8-(difluoromethyl)quinolin-5-yl]-5-methylpiperidin-3-yl]-3,3-difluorocyclobutane-1-carboxamide] is higher in IC50: < 1000 nM for the first, > 10000 nM for the second. The first is the more potent here.

`C[C@H]1C[C@@H](NC(=O)CC2CNC2)CN(c2ccc(C(F)F)c3ncccc23)C1` [Compound 312, 2-(azetidin-3-yl)-N-[(3R,5S)-1-[8-(difluoromethyl)quinolin-5-yl]-5-methylpiperidin-3-yl]acetamide] and `C[C@H]1C[C@@H](NC(=O)CC2CNC2)CN(c2ccc(C(F)F)c3nccnc23)C1` [Compound 324, 2-(azetidin-3-yl)-N-[(3R,5S)-1-[8-(difluoromethyl)quinoxalin-5-yl]-5-methylpiperidin-3-yl]acetamide] fall in the same range of IC50: 1000 to 10000 nM for the first, 1000 to 10000 nM for the second.

`C[C@H]1C[C@@H](NC(=O)CN2CCCN(C)CC2)CN(c2ccc(C(F)F)c3ncccc23)C1` [Compound 314, N-[(3R,5S)-1-[8-(difluoromethyl)quinolin-5-yl]-5-methylpiperidin-3-yl]-2-(4-methyl-1,4-diazepan-1-yl)acetamide] and `C[C@H]1C[C@@H](NC(=O)CN2CCCN(C)CC2)CN(c2ccc(C(F)F)c3nccnc23)C1` [Compound 326, N-[(3R,5S)-1-[8-(difluoromethyl)quinoxalin-5-yl]-5-methylpiperidin-3-yl]-2-(4-methyl-1,4-diazepan-1-yl)acetamide] cannot be ordered by IC50: < 1000 nM for the first, < 1000 nM for the second.

`C[C@H]1C[C@@H](NC(=O)CC(C)(C)CN)CN(c2ccc(C(F)F)c3ncccc23)C1` [Compound 315, 4-amino-N-[(3R,5S)-1-[8-(difluoromethyl)quinolin-5-yl]-5-methylpiperidin-3-yl]-3,3-dimethylbutanamide] and `C[C@H]1C[C@@H](NC(=O)CC(C)(C)CN)CN(c2ccc(C(F)F)c3nccnc23)C1` [Compound 327, 4-amino-N-[(3R,5S)-1-[8-(difluoromethyl)quinoxalin-5-yl]-5-methylpiperidin-3-yl]-3,3-dimethylbutanamide] cannot be ordered by IC50: < 1000 nM for the first, < 1000 nM for the second.

`C[C@H]1C[C@@H](NC(=O)CC2CCN(C)CC2)CN(c2ccc(C(F)F)c3ncccc23)C1` [Compound 316, N-[(3R,5S)-1-[8-(difluoromethyl)quinolin-5-yl]-5-methylpiperidin-3-yl]-2-(1-methylpiperidin-4-yl)acetamide] and `C[C@H]1C[C@@H](NC(=O)CC2CCN(C)CC2)CN(c2ccc(C(F)F)c3nccnc23)C1` [Compound 328, N-[(3R,5S)-1-[8-(difluoromethyl)quinoxalin-5-yl]-5-methylpiperidin-3-yl]-2-(1-methylpiperidin-4-yl)acetamide] cannot be ordered by IC50: < 1000 nM for the first, < 1000 nM for the second.

`C[C@H]1C[C@@H](NC(=O)CC2CCCN(C)C2)CN(c2ccc(C(F)F)c3nccnc23)C1` (stereo partly drawn) [Compound 318, N-[(3R,5S)-1-[8-(difluoromethyl)quinoxalin-5-yl]-5-methylpiperidin-3-yl]-2-(1-methylpiperidin-3-yl)acetamide] and `C[C@H]1C[C@@H](NC(=O)CC2CCN(C)C2)CN(c2ccc(C(F)F)c3nccnc23)C1` (stereo partly drawn) [Compound 319, N-[(3R,5S)-1-[8-(difluoromethyl)quinoxalin-5-yl]-5-methylpiperidin-3-yl]-2-(1-methylpyrrolidin-3-yl)acetamide] cannot be ordered by IC50: < 1000 nM for the first, < 1000 nM for the second.

`C[C@H]1C[C@@H](NC(=O)CN2CC(O)C2)CN(c2ccc(C(F)F)c3nccnc23)C1` [Compound 320, N-[(3R,5S)-1-[8-(difluoromethyl)quinoxalin-5-yl]-5-methylpiperidin-3-yl]-2-(3-hydroxyazetidin-1-yl)acetamide] and `CC(C(=O)N[C@@H]1C[C@H](C)CN(c2ccc(C(F)F)c3nccnc23)C1)N1CC(O)C1` (stereo partly drawn) [Compound 321, N-[(3R,5S)-1-[8-(difluoromethyl)quinoxalin-5-yl]-5-methylpiperidin-3-yl]-2-(3-hydroxyazetidin-1-yl)propanamide] fall in the same range of IC50: 1000 to 10000 nM for the first, 1000 to 10000 nM for the second.

`C[C@H]1C[C@@H](NC(=O)CC2CC2(F)F)CN(c2ccc(C(F)F)c3nccnc23)C1` (stereo partly drawn) [Compound 322, 2-(2,2-difluorocyclopropyl)-N-[(3R,5S)-1-[8-(difluoromethyl)quinoxalin-5-yl]-5-methylpiperidin-3-yl]acetamide] and `C[C@H]1C[C@@H](NC(=O)C2CC(F)(F)C2)CN(c2ccc(C(F)F)c3nccnc23)C1` [Compound 329, N-[(3R,5S)-1-[8-(difluoromethyl)quinoxalin-5-yl]-5-methylpiperidin-3-yl]-3,3-difluorocyclobutane-1-carboxamide] fall in the same range of IC50: 1000 to 10000 nM for the first, 1000 to 10000 nM for the second.

`CC(C(=O)N[C@@H]1C[C@H](C)CN(c2ccc(C(F)F)c3nccnc23)C1)N1CC(F)(F)C1` (stereo partly drawn) [Compound 323, 2-(3,3-difluoroazetidin-1-yl)-N-[(3R,5S)-1-[8-(difluoromethyl)quinoxalin-5-yl]-5-methylpiperidin-3-yl]propanamide] and `CC(C(=O)N[C@@H]1C[C@H](C)CN(c2ccc(C(F)F)c3nccnc23)C1)N1CCC(O)CC1` (stereo partly drawn) [Compound 325, N-[(3R,5S)-1-[8-(difluoromethyl)quinoxalin-5-yl]-5-methylpiperidin-3-yl]-2-(4-hydroxypiperidin-1-yl)propanamide] fall in the same range of IC50: 1000 to 10000 nM for the first, 1000 to 10000 nM for the second.
